Reference: patent US7572797B2, “Amino substituted pyrazine derivatives for the treatment of pain” (Pfizer Inc., priority 2005, dated 2009)
pIC50: −log10 of the molar value.

What was measured:
[1] = target: T1, Human Nav1.8 (Homo sapiens, UniProt Q9Y5Y9); test: VIPR assay for Nav1.8 (FRET membrane potential, deltamethrin as opener); type: cell-based; conditions: automated dissolution procedure; for pIC50: HEK293 cells expressing human Nav1.8, average of replicates; for Selectivity Ratio: TTX-S IC50 / NaV1.8 IC50
T1 construct: expressed in transfected cells
T1 sequence (Q9Y5Y9 whole entry): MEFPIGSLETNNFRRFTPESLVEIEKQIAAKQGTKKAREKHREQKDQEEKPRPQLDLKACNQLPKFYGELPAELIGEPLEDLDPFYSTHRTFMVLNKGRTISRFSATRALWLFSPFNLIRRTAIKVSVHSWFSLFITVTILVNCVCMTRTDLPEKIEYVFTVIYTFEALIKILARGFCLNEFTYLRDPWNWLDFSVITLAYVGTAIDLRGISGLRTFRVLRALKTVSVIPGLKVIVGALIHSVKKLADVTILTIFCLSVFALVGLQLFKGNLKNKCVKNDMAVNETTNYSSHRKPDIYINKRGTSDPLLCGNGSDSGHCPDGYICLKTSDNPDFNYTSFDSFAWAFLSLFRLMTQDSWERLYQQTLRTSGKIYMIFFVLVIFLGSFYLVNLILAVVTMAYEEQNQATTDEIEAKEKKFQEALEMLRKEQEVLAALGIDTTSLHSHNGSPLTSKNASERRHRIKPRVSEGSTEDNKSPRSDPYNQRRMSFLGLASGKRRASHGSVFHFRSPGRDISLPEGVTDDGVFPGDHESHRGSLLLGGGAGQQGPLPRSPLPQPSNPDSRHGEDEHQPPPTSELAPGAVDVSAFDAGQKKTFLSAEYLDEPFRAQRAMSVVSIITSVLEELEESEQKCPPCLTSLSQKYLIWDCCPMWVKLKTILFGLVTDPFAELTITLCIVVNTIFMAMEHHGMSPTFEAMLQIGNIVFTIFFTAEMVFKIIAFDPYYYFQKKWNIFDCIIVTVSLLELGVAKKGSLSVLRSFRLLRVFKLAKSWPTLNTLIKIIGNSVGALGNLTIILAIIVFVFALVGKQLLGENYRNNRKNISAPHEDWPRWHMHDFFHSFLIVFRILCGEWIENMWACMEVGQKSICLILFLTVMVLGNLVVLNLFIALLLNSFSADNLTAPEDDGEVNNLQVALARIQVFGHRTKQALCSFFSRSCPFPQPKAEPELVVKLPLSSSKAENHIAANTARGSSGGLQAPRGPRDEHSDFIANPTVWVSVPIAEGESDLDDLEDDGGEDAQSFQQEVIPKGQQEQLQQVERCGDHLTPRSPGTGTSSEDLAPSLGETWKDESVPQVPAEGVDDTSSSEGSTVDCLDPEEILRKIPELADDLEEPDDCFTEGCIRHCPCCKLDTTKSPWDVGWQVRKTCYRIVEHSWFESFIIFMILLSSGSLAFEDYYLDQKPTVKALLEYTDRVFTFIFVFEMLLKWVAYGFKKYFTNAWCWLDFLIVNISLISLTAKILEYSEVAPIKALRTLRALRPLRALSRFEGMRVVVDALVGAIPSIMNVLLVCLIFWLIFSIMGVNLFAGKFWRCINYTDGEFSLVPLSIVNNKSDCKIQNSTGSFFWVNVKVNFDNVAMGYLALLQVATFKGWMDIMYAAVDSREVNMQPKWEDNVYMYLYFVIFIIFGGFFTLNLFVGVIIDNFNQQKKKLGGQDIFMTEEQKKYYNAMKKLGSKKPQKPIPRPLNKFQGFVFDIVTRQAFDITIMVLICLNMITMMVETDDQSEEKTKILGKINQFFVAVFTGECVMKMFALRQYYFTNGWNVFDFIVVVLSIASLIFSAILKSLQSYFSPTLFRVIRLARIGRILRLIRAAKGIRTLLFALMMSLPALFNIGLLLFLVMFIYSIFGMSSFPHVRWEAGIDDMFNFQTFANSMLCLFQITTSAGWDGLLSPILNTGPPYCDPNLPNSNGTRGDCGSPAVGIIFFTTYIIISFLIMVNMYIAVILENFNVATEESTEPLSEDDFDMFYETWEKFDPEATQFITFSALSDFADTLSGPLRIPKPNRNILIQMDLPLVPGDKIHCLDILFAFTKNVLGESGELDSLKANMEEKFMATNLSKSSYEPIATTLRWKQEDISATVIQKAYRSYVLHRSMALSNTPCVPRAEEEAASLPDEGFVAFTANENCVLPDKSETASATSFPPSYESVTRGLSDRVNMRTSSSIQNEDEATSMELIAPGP

[2] = system: tetrodotoxin-sensitive voltage-gated sodium channels including NaV1.2, NaV1.3 and NaV1.7 (SHSY-5Y cell line); test: TTX-S assay in SHSY-5Y cell line (VIPR procedure, veratridine as opener); type: cell-based; conditions: read-out: TTX-S IC50; SHSY-5Y cells; veratridine 50 μM; automated dissolution procedure; average of replicates

Compound	pIC50 [1]	Selectivity Ratio [1]	pIC50 [2]
Cc1nonc1C(=O)Nc1cnc(-c2cccc3ccccc23)c(N)n1 [Example 44, N-[6-amino-5-(1-naphthyl)pyrazin-2-yl]-4-methyl-1,2,5-oxadiazole-3-carboxamide]	4.78	>1.67	< 4.56
COc1cc(Cl)cc(-c2ncc(NC(=O)c3cnoc3)nc2N)c1Cl [Example 48, N-[6-amino-5-(2,5-dichloro-3-methoxyphenyl)pyrazin-2-yl]isoxazole-4-carboxamide]	5.09	>3.75	< 4.52
COc1cc(Cl)cc(-c2ncc(NC(=O)c3conc3C)nc2N)c1Cl [Example 49, N-[6-Amino-5-(2,5-dichloro-3-methoxyphenyl)pyrazin-2-y]-3-methylisoxazole-4-carboxamide]	6.20	>21.6	< 4.87
Cc1oncc1C(=O)Nc1cnc(-c2ccccc2Cl)c(N)n1 [Example 50, N-[6-amino-5-(2-chlorophenyl)pyrazin-2-yl]-5-methylisoxazole-4-carboxamide]	4.99	>2.90	< 4.52
CC(C)c1oncc1C(=O)Nc1cnc(-c2ccccc2Cl)c(N)n1 [Example 51, N-[6-amino-5-(2-chlorophenyl)pyrazin-2-yl]-5-isopropylisoxazole-4-carboxamide]	6.02	>21.89	< 4.68
Cc1nonc1C(=O)Nc1cnc(-c2ccccc2Cl)c(N)n1 [Example 55, N-[6-amino-5-(2-chlorophenyl)pyrazin-2-yl]-4-methyl-1,2,5-oxadiazole-3-carboxamide]	< 4.67	->1.40	< 4.52
COCCn1nccc1C(=O)Nc1cnc(-c2ccccc2Cl)c(N)n1 [Example 56, N-[6-amino-5-(2-chlorophenyl)pyrazin-2-yl]-1-(2-methoxyethyl)-1H-pyrazole-5-carboxamide]	< 4.57	–	< 4.52
Cn1nccc1C(=O)Nc1cnc(-c2ccccc2Cl)c(N)n1 [Example 57, N-[6-amino-5-(2-chlorophenyl)pyrazin-2-yl]-1-methyl-1H-pyrazole-5-carboxamide]	< 4.55	–	< 4.52
COCCn1nccc1C(=O)Nc1cnc(-c2cccc(Cl)c2Cl)c(N)n1 [Example 58, N-[6-amino-5-(2,3-dichlorophenyl)pyrazin-2-yl]-1-(2-methoxyethyl)-1H-pyrazole-5-carboxamide]	5.03	>3.21	< 4.52
Cc1nonc1C(=O)Nc1cnc(-c2cccc(Cl)c2Cl)c(N)n1 [Example 59, N-[6-amino-5-(2,3-dichlorophenyl)pyrazin-2-yl]-4-methyl-1,2,5-oxadiazole-3-carboxamide]	5.14	>3.58	< 4.59
Nc1nc(NC(=O)c2cnoc2)cnc1-c1cccc(Cl)c1Cl [Example 60, N-[6-amino-5-(2,3-dichlorophenyl)pyrazin-2-yl]isoxazole-4-carboxamide]	5.14	>4.20	< 4.52
Nc1nc(NC(=O)c2ccn[nH]2)cnc1-c1cc(Cl)ccc1Cl [Example 62, N-[6-amino-5-(2,5-dichlorophenyl)pyrazin-2-yl]-1H-pyrazole-5-carboxamide]	< 4.52	–	< 4.52
